From paper PMC7481290, “Halogenation as a tool to tune antimicrobial activity of peptoids” (Scientific Reports, 2020)
Converted amounts (≈) assume the structure as drawn. Non-standard residues stand in square brackets, D forms with d. Residues, ends and D or L forms follow the SMILES beside them. Gly(Nα-4-Cl-benzyl) = O=C(O)CNCc1ccc(Cl)cc1; N(4-F-Bzl)Gly = O=C(O)CNCc1ccc(F)cc1; NBzl(4-I)Gly = O=C(O)CNCc1ccc(I)cc1; Nphe = O=C(O)CNCc1ccccc1; Nlys = NCCCCNCC(=O)O

How the values were obtained:
[1] = tested on: Methicillin-resistant S. aureus USA 300; assay type: cell-based, Staphylococcus aureus; settings: USA 300, 18 h
Protocol: (§1) Bacterial growth inhibition was determined by using broth microdilution according to the Clinical Laboratory Standards Institute[43]. The antibacterial activity of peptoids was tested against S. aureus ATCC 25923, ATCC29213, and methicillin resistant S. aureus USA 300, methicillin resistant S. epidermidis ATCC 51625, a biofilm producing methicillin resistant S. epidermidis ET-024[44], P. aeruginosa Pa01 (H103), and E. coli ATCC 25922. Bacteria, grown on agar plates for 18 h at 37 °C, were diluted to ∼1 × 10^8 CFU/mL in Mueller‐Hinton Broth II (MHB II). Twofold serial dilutions of peptoids in MHB II were inoculated with bacteria to achieve a final concentration of 5 × 10^5 CFU/mL in polypropylene 96 U‐well microtiter plates (Corning 3,897; ThermoFisher Scientific, Roskilde), followed by incubation at 37 °C in ambient air for 18 h. The MIC values were determined as the lowest concentration showing no visible bacterial growth. Experiments were performed twice (in technical triplicates) on 2 different days.

S. aureus ATCC 25923 = assay type: cell-based, Staphylococcus aureus; settings: ATCC 25923, 18 h
Protocol: as §1

S. aureus ATCC 29213 = assay type: cell-based, Staphylococcus aureus; settings: ATCC 29213, 18 h
Protocol: as §1

[2] = tested on: Methicillin-resistant S. epidermidis ATCC 51625; assay type: cell-based, Staphylococcus epidermidis; settings: ATCC 51625, 18 h
Protocol: as §1

[3] = tested on: Methicillin-resistant S. epidermidis ET-024; assay type: cell-based, Staphylococcus epidermidis; settings: Methicillin-resistant ET-024, 18 h
Protocol: as §1

E. coli ATCC 25922 = assay type: cell-based, Escherichia coli; settings: ATCC 25922, 18 h
Protocol: as §1

[4] = tested on: P. aeruginosa PA01 (H103); assay type: cell-based, Pseudomonas aeruginosa; settings: H103, 18 h
Protocol: as §1

[5] = Critical aggregation concentration from SAXS fit analysis; assay type: physicochemical
Protocol: SAXS experiments of the 10-mer peptoids were performed at the automated BM29 bioSAXS beamline at the European Synchrotron Radiation Facility (ESRF) in Grenoble, France[45]. The data was obtained using an energy of 12.5 keV and a detector distance of 2.87 m, covering a q range ( q=4πsin(θ/2)/λ ), where θ is the scattering angle and λ is the X-ray wavelength) of about 0.0047 to 0.5 Å^−1. The data set was calibrated to an absolute intensity scale using water as a primary standard. 40 µL samples were run through a capillary using the flow mode of the automated sample changer. SAXS data was collected in ten successive frames of 0.5 s each to monitor radiation damage and the data reduction was done using the standard tool at BM29[47].
The SAXS experiments on the fully iodinated 6-, 8-, and 12-mers to determine the CAC of the compounds were performed using a Bruker NANOSTAR equipped with a microfocus X-ray source (IμS Cu, Incoatec, Germany) and a VÅNTEC-2000 detector. Raw scattering data was calibrated to absolute intensity scale using water as a primary standard and radially averaged in order to obtain the 1D scattered intensity profile as a function of the scattering vector, with a wavelength of 1.54 Å.
The modelling fit analysis of the scattering data is explained in detail in the supplementary information.

[6] = tested on: selected bacterial strains (S. aureus, S. epidermidis, E. coli, P. aeruginosa); assay type: cell-based
Protocol: All 36 peptoids were tested against seven bacterial strains: five Gram-positive (Staphylococcus aureus ATCC 25923 and ATCC 29213, methicillin-resistant Staphylococcus aureus USA 300, methicillin-resistant Staphylococcus epidermidis ET-024 and ATCC 51625) and two Gram-negative (Escherichia coli ATCC 25922, Pseudomonas aeruginosa PA01) (Table 1).
as §1

Row | SMILES | Minimal inhibitory concentration MRSA^c [1] [mg/L] | Minimal inhibitory concentration SA^a (S. aureus ATCC 25923) [mg/L] | Minimal inhibitory concentration SA^b (S. aureus ATCC 29213) [mg/L] | Minimal inhibitory concentration MRSE^e [2] [mg/L] | Minimal inhibitory concentration MRSE^d [3] [mg/L] | Minimal inhibitory concentration EC^f (E. coli ATCC 25922) [mg/L] | Minimal inhibitory concentration PA^g [4] [mg/L] | critical aggregation concentration (CAC) [5] [mg/mL] | antimicrobial potency against the selected bacterial strains, in words [6]
1 | NCCCCNCC(=O)N(CC(=O)N(CCCCN)CC(=O)N(CC(=O)N(CCCCN)CC(=O)N(CC(=O)N(CCCCN)CC(=O)N(CC(=O)N(CCCCN)CC(=O)N(CC(N)=O)Cc1ccc(I)cc1)Cc1ccccc1)Cc1ccc(I)cc1)Cc1ccccc1)Cc1ccc(I)cc1 [Compound 27] (H-[Nlys][NBzl(4-I)Gly][Nlys][Nphe][Nlys][NBzl(4-I)Gly][Nlys][Nphe][Nlys][NBzl(4-I)Gly]-NH2) | 4 (≈ 2.26 µM) | 4 (≈ 2.26 µM) | 4 (≈ 2.26 µM) | 1 (≈ 0.565 µM) | 2 (≈ 1.13 µM) | 128 (≈ 72.3 µM) | > 512 | > 5 | –
2 | NCCCCNCC(=O)N(CC(=O)N(CCCCN)CC(=O)N(CC(=O)N(CCCCN)CC(=O)N(CC(=O)N(CCCCN)CC(=O)N(CC(=O)N(CCCCN)CC(=O)N(CC(N)=O)Cc1ccc(F)cc1)Cc1ccc(F)cc1)Cc1ccc(F)cc1)Cc1ccc(F)cc1)Cc1ccc(F)cc1 [Compound 20] (H-[Nlys][N(4-F-Bzl)Gly][Nlys][N(4-F-Bzl)Gly][Nlys][N(4-F-Bzl)Gly][Nlys][N(4-F-Bzl)Gly][Nlys][N(4-F-Bzl)Gly]-NH2) | 32 (≈ 21.6 µM) | 64 (≈ 43.1 µM) | 64 (≈ 43.1 µM) | 8 (≈ 5.39 µM) | 4 (≈ 2.7 µM) | 128 (≈ 86.3 µM) | 256 (≈ 173 µM) | > 5 | –
3 | NCCCCNCC(=O)N(CC(=O)N(CCCCN)CC(=O)N(CC(=O)N(CCCCN)CC(=O)N(CC(=O)N(CCCCN)CC(=O)N(CC(=O)N(CCCCN)CC(=O)N(CC(N)=O)Cc1ccc(F)cc1)Cc1ccccc1)Cc1ccc(F)cc1)Cc1ccccc1)Cc1ccc(F)cc1 [Compound 24] (H-[Nlys][N(4-F-Bzl)Gly][Nlys][Nphe][Nlys][N(4-F-Bzl)Gly][Nlys][Nphe][Nlys][N(4-F-Bzl)Gly]-NH2) | 256 (≈ 177 µM) | 512 (≈ 354 µM) | 512 (≈ 354 µM) | 8 (≈ 5.53 µM) | 4 (≈ 2.76 µM) | 256 (≈ 177 µM) | 512 (≈ 354 µM) | > 5 | –
4 | NCCCCNCC(=O)N(CC(=O)N(CCCCN)CC(=O)N(CC(=O)N(CCCCN)CC(=O)N(CC(=O)N(CCCCN)CC(=O)N(CC(=O)N(CCCCN)CC(=O)N(CC(=O)N(CCCCN)CC(=O)N(CC(N)=O)Cc1ccccc1)Cc1ccccc1)Cc1ccccc1)Cc1ccccc1)Cc1ccccc1)Cc1ccccc1 [Compound 28] (H-[Nlys][Nphe][Nlys][Nphe][Nlys][Nphe][Nlys][Nphe][Nlys][Nphe][Nlys][Nphe]-NH2) | 512 (≈ 307 µM) | > 512 | 512 (≈ 307 µM) | 32 (≈ 19.2 µM) | 64 (≈ 38.3 µM) | 128 (≈ 76.7 µM) | 128 (≈ 76.7 µM) | – | inactive
5 | NCCCCNCC(=O)N(CC(=O)N(CCCCN)CC(=O)N(CC(=O)N(CCCCN)CC(=O)N(CC(=O)N(CCCCN)CC(=O)N(CC(=O)N(CCCCN)CC(=O)N(CC(N)=O)Cc1ccc(Cl)cc1)Cc1ccc(Cl)cc1)Cc1ccc(Cl)cc1)Cc1ccc(Cl)cc1)Cc1ccc(Cl)cc1 [Compound 21] (H-[Nlys][Gly(Nα-4-Cl-benzyl)][Nlys][Gly(Nα-4-Cl-benzyl)][Nlys][Gly(Nα-4-Cl-benzyl)][Nlys][Gly(Nα-4-Cl-benzyl)][Nlys][Gly(Nα-4-Cl-benzyl)]-NH2) | 2 (≈ 1.28 µM) | 2 (≈ 1.28 µM) | 2 (≈ 1.28 µM) | 2 (≈ 1.28 µM) | 1 (≈ 0.639 µM) | 64 (≈ 40.9 µM) | > 512 | > 5 | –
